Assay results: publication PMC7473840, “Identification of a molecular locus for normalizing dysregulated GABA release from interneurons in the Fragile X brain” (Molecular Psychiatry, 2018)
pKd: −log10 of the molar value. Entries after “also recorded” stand apart in the source; their conditions may differ.

Tests used:
WT mice = assay: Three-chambered sociability test, WT; format: in vivo, mouse; details: 200 mg/kg
Excerpt: (§1) The three-chambered sociability test was composed of three sessions: habituation (trail 1), sociability (trial 2), and social novelty (trial 3), which evaluated sociable behavior and recognition of social novelty. For habituation, 7–9-week-old testing male mouse was placed in the middle chamber and allowed to freely explore all three chambers. In the sociability session, a stranger mouse (the same strain and gender but never encountered before) was put underneath a grid cup and placed in one of the two side-chambers, while another identical empty cup was placed on the other side. In the social novelty session, another stranger mouse was put inside the previously empty cup. Each session lasted 9 min. Physical contacts around the cups with the nose, head, and forelimbs, were defined as sniffing behavior and used as an index for sociable behavior [47]. A camera, connected to a computer, was used to track mice activity using the ANY-maze software (ANY-maze, Stoelting Co., IL, USA). Testing was conducted 30 min after saline or DHA (200 mg/kg, Sigma) injection (intraperitoneal, i.p.) to minimize distress from drug administration and ensure normal physical activity that could be affected by DHA for a short period.

Fmr1-KO mice = assay: Three-chambered sociability test, Fmr1-KO; format: in vivo, mouse; details: 200 mg/kg i.p., 30 min before test; 7–9-week-old male; n = 7
Excerpt: as §1

adult Fmr1-KO mice = assay: Acoustic startle reflex (ASR); format: in vivo, mouse; details: chow enriched with 0.5% w/w DHA for 1 week; n = 11 versus n = 10 control; double-blind
Protocol: As previously described, acoustic startle response was measured from 7–9-week-old mice, which were submitted to no pulse or a pulse stimulation (120 dB, 40 ms) alone or in combination of a prepulse (either 72, 78, or 82 dB, 20 ms). Maximal startle response was recorded and compared between groups for all types of trials. The sound attenuated chambers and analysis software were obtained from San Diego Instruments (San Diego, USA). One week prior to testing, mice were fed with normal chow or calorically equivalent chow enriched with 0.5% DHA (Sigma) prepared by Research Diets (New Brunswick, USA). Diets were prepared with identical dyes to be indistinguishable by eye. Mice were tested for acoustic startle response only once between 4 p.m. and 7 p.m.

[1] = system: PNs, Fmr1-KO cerebellar slices; assay: Spontaneous firing of PNs, cell-attached, Fmr1-KO; format: cell-based, mouse; details: 10 µM, Fmr1-KO, cell-attached; n = 7
[2] = ref [45]; cited from earlier work
BC–PN synapse, Fmr1-KO = assay: sIPSCs from PNs, Fmr1-KO synapses; format: cell-based, mouse; details: 10 µM applied to Fmr1-KO cerebellar slices; n = 8
Kv1.2 = assay: K+ current by voltage ramp, CHO cells expressing Kv1.2-WT; format: cell-based; details: 1 µM, n = 7
Excerpt: Fig. 3 Direct interaction between FMRP and Kv1.2 in a phosphorylation-specific manner. a Illustration of an alpha subunit of Kv1.2 channel with extensive details of intracellular C-terminus. b K^+ current generated by a voltage ramp (−90 to 100 mV, top) from CHO cells expressing WT (Kv1.2-WT, middle) or truncated Kv1.2 (Kv1.2-Δ429-500, bottom) before and after infusion of N-terminus FMRP protein (n-FMRP, H00002332-P01, Novus Biologicals, 1:100 dilution). c The changes in amplitude of K^+ current by n-FMRP is summarized for Kv1.2-WT (n = 8) and Kv1.2-Δ429-500 (n = 8) constructs. d Co-IP of Kv1.2 and FMRP in the absence or presence of three peptides targeting the sequence (436–457) of C-terminus of Kv1.2 as highlighted in a phosphorylated (PhosKv436-457), non-phosphorylated (Kv436-457), and phosphorylated scrambled peptide. e Summary of effect of the three peptides. […] The changes in the amplitude and frequency of sIPSCs are summarized in the right panels for PhosKv436-457 (n = 6, f), non-phosphorylated Kv436-457 (n = 6, g), and scrambled (n = 5, h) peptides.
Fig. 5 DHA rescue and graphical overview of the function of FMRP at the BC–PN synapses. a, b Currents generated by a voltage ramp (−90 to 100 mV) from CHO cells transfected with recombinant Kv1.2 in the absence (black) or presence (red) of DHA (1 µM). These currents are fit with a Boltzmann function: f(V) = Imax/(1+e^(V1/2−V)/Vc)+C, in which “Imax” denotes the theoretical value of the maximal amplitude of Kv1.2 currents; “V1/2” indicates the depolarization voltage needed to produce the half-maximal amplitude of the currents; “Vc” is the slope factor describing the steepness of the Boltzmann curve. The parameters for the two groups (n = 7) are summarized in (b). c, d sIPSCs recorded from PNs in Fmr1-KO slices with (bottom) or without (top) DHA (10 µM). Changes in the amplitude and frequency of sIPSC (n = 8) are quantified in (d). e, f APs from PNs before (top) and after (bottom) DHA application (10 µM). […] In WT BCs, there are two populations of Kv1.2 channels being in either non-phosphorylated or phosphorylated state (with C-termini colored in black and turquoise respectively; +/−P to symbolize phosphate modification). The N-terminus of FMRP dimers directly interact with C-terminus of Kv1.2 only in a phosphorylated state. This interaction enhances the gating (Pathway 1), membrane targeting (Pathway 2), and/or axonal trafficking (Pathway 3) of Kv1.2 in the nerve terminal to control its excitability and Ca^2+ dynamics (blue) critical for tuning inhibitory neurotransmission and ensuring the final output from principal neurons (i.e., PNs). […]

[3] = ref Invitrogen; read-out: Kd (Ca2+ indicator); cited from earlier work

## CC/C=C\C/C=C\C/C=C\C/C=C\C/C=C\C/C=C\CCC(=O)O [DHA, docosahexaenoic acid]
WT mice; WT, repeated one-way ANOVA, p>0.05
  distance travelled during the trials: No significant differences
WT mice; male C57BL/6J, n = 8, repeated two-way ANOVA
  social behavior of WT mice: did not affect social performance of WT mice; also recorded: did not alter the social behaviors of WT animals
WT mice; sociability session, WT, n = 8
  sniffing time, stranger versus empty cup: spent more time sniffing the stranger than the empty cup
WT mice; social novelty session, WT, n = 8
  sniffing time, novel stranger versus familiar mouse: spent more time sniffing the novel stranger than the familiar one
Fmr1-KO mice
  social novelty recognition: improved the deficient social novelty recognition
Adult Fmr1-KO mice
  acoustic startle reflex from 120-dB sound stimulation: significantly attenuated ASR
[1]
  spike (AP) frequency of PNs: increases the frequency of APs in the Fmr1-KO synapses; also recorded: enhanced the spike frequency of PNs, restoring the firing rate of Fmr1-KOs to the same level as the WTs
[2]
  blood–brain barrier crossing: can cross blood–brain barrier
BC–PN synapse, Fmr1-KO
  amplitude and frequency of sIPSCs: reduced amplitude and frequency of sIPSCs
Kv1.2; Boltzmann fit
  half-activation voltage (V1/2): decreased the half-activation voltage (V1/2)
  maximal amplitude of Kv1.2 currents: the maximal amplitude was unaffected
  slope factor (Vc): increased the slope factor (Vc)
Kv1.2; ramp −90 to 100 mV
  shift in Kv1.2 currents evoked by voltage ramp: a significant leftward shift in the Kv1.2 currents

## Fluo-4
[3]
  pKd: 6.46
